Test results: US11673898B2, “Substituted inhibitors of menin-MLL and methods of use” (Kura Oncology, Inc., priority 2016, dated 2023)
pIC50: −log10 of the molar value.

target: T1, Menin MLL 4-43 (Homo sapiens, UniProt O00255); test: Fluorescence polarization (FP) competition assay of the menin-MLL interaction; assay type: binding; conditions: fluorescence polarization assay; read-out: Menin MLL 4-43 IC50
T1 sequence (O00255 1-610): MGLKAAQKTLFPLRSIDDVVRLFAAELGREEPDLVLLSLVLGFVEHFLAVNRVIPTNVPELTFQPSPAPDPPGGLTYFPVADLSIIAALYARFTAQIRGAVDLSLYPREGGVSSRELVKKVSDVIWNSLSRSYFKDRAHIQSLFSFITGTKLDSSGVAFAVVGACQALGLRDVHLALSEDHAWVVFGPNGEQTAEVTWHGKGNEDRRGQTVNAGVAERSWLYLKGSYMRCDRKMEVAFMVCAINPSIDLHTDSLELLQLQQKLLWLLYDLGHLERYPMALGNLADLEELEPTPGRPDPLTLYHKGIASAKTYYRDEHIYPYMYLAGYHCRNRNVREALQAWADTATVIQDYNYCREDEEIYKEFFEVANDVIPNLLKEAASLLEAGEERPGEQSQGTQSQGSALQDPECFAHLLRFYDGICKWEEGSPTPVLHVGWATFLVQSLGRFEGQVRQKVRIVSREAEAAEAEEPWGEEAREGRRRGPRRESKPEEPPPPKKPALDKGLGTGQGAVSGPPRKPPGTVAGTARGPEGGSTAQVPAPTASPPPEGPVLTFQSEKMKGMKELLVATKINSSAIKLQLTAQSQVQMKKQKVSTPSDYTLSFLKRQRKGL

SMILES	pIC50
Cc1c(CN2CCC(Nc3ncnc4sc(CC(F)(F)F)cc34)CC2)ccc2c1cc(C#N)n2CCN1CCC2(CC1)CCN(S(C)(=O)=O)C2 [Compound 52]	6.00 to 7.70
Cc1nc(NC2CCN(Cc3ccc4c(cc(C#N)n4C[C@H](C)N4CCN(S(=O)(=O)CF)CC4)c3C)CC2)c2cc(CC(F)(F)F)sc2n1 [Compound 137]	6.60 to 7.30
Cc1nc(NC2CCN(Cc3ccc4c(cc(C#N)n4C[C@H](C)N4CCN(CC(N)=O)CC4)c3C)CC2)c2cc(CC(F)(F)F)sc2n1 [Compound 178]	> 7.30
CNc1nc(NC2CCN(Cc3ccc4c(cc(C#N)n4C[C@H](C)N4CCOC(C(N)=O)C4)c3C)CC2)c2cc(CC(F)(F)F)sc2n1 (stereo partly drawn) [Compound 216]	> 7.30
Cc1c(CN2CCC(Nc3nc(N)nc4sc(CC(F)(F)F)cc34)CC2)ccc2c1cc(C#N)n2C[C@H](C)N1CCN(C(C)C)CC1 [Compound 166]	> 7.30
Cc1c(CN2CCC(Nc3ncnc4sc(CC(F)(F)F)cc34)CC2)ccc2c1cc(C#N)n2CCN1CC2(CCN(S(C)(=O)=O)CC2)C1 [Compound 56]	6.00 to 7.70
Cc1c(CN2CCC(Nc3ncnc4sc(CC(F)(F)F)cc34)CC2)ccc2c1cc(C#N)n2CC1(N2CCN(S(C)(=O)=O)CC2)CC1 [Compound 61]	6.60 to 7.30
Cc1c(CN2CCC(Nc3ncnc4sc(CC(F)(F)F)cc34)CC2)ccc2c1cc(C#N)n2C[C@H](C)N1CCN(C(=O)CC(F)(F)F)CC1 [Compound 122]	6.60 to 7.30
CNc1nc(NC2CCN(Cc3ccc4c(cc(C#N)n4C[C@H](C)N4CCN(S(C)(=O)=O)CC4)c3C)CC2)c2c(C)c(CC(F)(F)F)sc2n1 [Compound 252]	< 6.00
C/C=C(\C#N)C(=O)Nc1ccc(CCn2c(C#N)cc3c(C)c(CN4CCC(Nc5ncnc6sc(CC(F)(F)F)cc56)CC4)ccc32)cc1 [Compound 1013]	6.60 to 7.30
C#CCOc1cc(CCn2c(C#N)cc3c(C)c(CN4CCC(Nc5ncnc6sc(CC(F)(F)F)cc56)CC4)ccc32)ccc1NC(=O)C=C [Compound 1011]	6.00 to 7.70
Cc1nc(NC2CCN(Cc3ccc4c(cc(C#N)n4C[C@H](C)N4C5CCC4CN(S(C)(=O)=O)C5)c3C)CC2)c2cc(CC(F)(F)F)sc2n1 [Compound 283]	> 7.30
Cc1nc(NC2CCN(Cc3ccc4c(cc(C#N)n4C[C@H](C)N4CCN(S(=O)(=O)C5CC5)CC4)c3C)CC2)c2cc(CC(F)(F)F)sc2n1 [Compound 146]	6.60 to 7.30
Cc1c(CN2CCC(Nc3ncnc4sc(CC(F)(F)F)cc34)CC2)ccc2c1cc(C#N)n2C[C@H](C)N1CCN(C(=O)C(F)(F)F)CC1 [Compound 118]	6.00 to 7.70
CNc1nc(NC2CCN(Cc3ccc4c(cc(C#N)n4C[C@H](C)N4CCN(CC(=O)N(C)C)CC4)c3C)CC2)c2cc(CC(F)(F)F)sc2n1 [Compound 191]	> 7.30
Cc1c(CN2CCC(Nc3ncnc4sc(CC(F)(F)F)cc34)CC2)ccc2c1cc(C#N)n2CCN1CC2(CCN(S(C)(=O)=O)C2)C1 [Compound 58]	6.00 to 7.70
CNc1nc(NC2CCN(Cc3ccc4c(cc(C#N)n4C[C@H](C)N4CCN(S(=O)(=O)NC)CC4)c3C)CC2)c2cc(CC(F)(F)F)sc2n1 [Compound 192]	> 7.30
CC(=O)NC1CCN(CCn2c(C#N)cc3c(C)c(CN4CCC(Nc5ncnc6sc(CC(F)(F)F)cc56)CC4)ccc32)CC1 [Compound 1001]	6.00 to 7.70
CNc1nc(NC2CCN(Cc3ccc4c(cc(C#N)n4C[C@H](C)N4CCN(S(C)(=O)=O)[C@H](C#N)C4)c3C)CC2)c2cc(CC(F)(F)F)sc2n1 [Compound 209]	> 7.30
CNc1nc(NC2CCN(Cc3ccc4c(cc(C#N)n4C[C@H](C)N4CCN(CC(N)=O)CC4)c3C)CC2)c2cc(CC(F)(F)F)sc2n1 [Compound 182]	> 7.30
CNc1nc(NC2CCN(Cc3ccc4c(cc(C#N)n4C[C@H](C)N4CCN(S(C)(=O)=O)[C@H](C(=O)N(C)C)C4)c3C)CC2)c2cc(CC(F)(F)F)sc2n1 [Compound 196]	> 7.30
CNC(=O)CC1CCN([C@@H](C)Cn2c(C#N)cc3c(C)c(CN4CCC(Nc5nc(NC)nc6sc(CC(F)(F)F)cc56)CC4)ccc32)CC1 [Compound 206]	> 7.30
C[C@@H](Cn1c(C#N)cc2cc(CN3CCC(Nc4ncnc5sc(CC(F)(F)F)cc45)CC3)c(O)cc21)N1CCN(C=O)CC1 [Compound 159]	6.60 to 7.30
CNc1nc(NC2CCN(Cc3ccc4c(cc(C#N)n4C[C@H](C)N4CCN(S(=O)(=O)C5CC5)CC4)c3C)CC2)c2cc(CC(F)(F)F)sc2n1 [Compound 211]	6.60 to 7.30
Cc1c(CN2CCC(Nc3ncnc4sc(CC(F)(F)F)cc34)CC2)ccc2c1cc(C#N)n2CCN1CC2(C1)CN(S(C)(=O)=O)C2 [Compound 57]	6.00 to 7.70

Second part, the compound after the results:

pIC50	SMILES
> 7.30	Cc1c(CN2CCC(Nc3ncnc4sc(CC(F)(F)F)cc34)CC2)ccc2c1cc(C#N)n2C[C@H](C)N1CCN(S(C)(=O)=O)[C@@H](C)C1 [Compound 18]
6.60 to 7.30	CNS(=O)(=O)C1CCN(C(C)Cn2c(C#N)cc3c(C)c(CN4CCC(Nc5ncnc6sc(CC(F)(F)F)cc56)CC4)ccc32)CC1 (stereo not drawn) [Compound 128]
> 7.30	Cc1c(CN2CCC(Nc3ncnc4sc(CC(F)(F)F)cc34)CC2)ccc2c1cc(C#N)n2CC(C)N1CCC(S(C)(=O)=O)CC1 (stereo not drawn) [Compound 90]
> 7.30	COCCNS(=O)(=O)N1CCN([C@@H](C)Cn2c(C#N)cc3c(C)c(CN4CCC(Nc5ncnc6sc(CC(F)(F)F)cc56)CC4)ccc32)CC1 [Compound 123]
6.00 to 7.70	Cc1c(CN2CCC(Nc3ncnc4sc(CC(F)(F)F)cc34)CC2)ccc2c1cc(C#N)n2CC(C)N1CC(NS(C)(=O)=O)C1 (stereo not drawn) [Compound 169]
6.60 to 7.30	Cc1c(CN2CCC(Nc3ncnc4sc(CC(F)(F)F)cc34)CC2)ccc2c1cc(C#N)n2CC(C)N1C[C@H](C)N(S(C)(=O)=O)[C@@H](C)C1 (stereo partly drawn) [Compound 21]
6.60 to 7.30	Cc1c(CN2CCC(Nc3ncnc4sc(CC(F)(F)F)cc34)CC2)ccc2c1cc(C#N)n2C[C@H](C)N1CCN(S(=O)(=O)NCC(C)C)CC1 [Compound 120]
6.60 to 7.30	Cc1c(CN2CCC(Nc3nc(N)nc4sc(CC(F)(F)F)cc34)CC2)ccc2c1cc(C#N)n2C[C@@H](C)N1C[C@@H](C)N(S(C)(=O)=O)[C@H](C)C1 [Compound 180]
6.60 to 7.30	Cc1c(CN2CCC(Nc3ncnc4sc(CC(F)(F)F)cc34)CC2)ccc2c1cc(C#N)n2C[C@H](C)N1CCN(P(C)(C)=O)CC1 [Compound 150]
> 7.30	Cc1c(CN2CCC(Nc3ncnc4sc(CC(F)(F)F)cc34)CC2)ccc2c1cc(C#N)n2C[C@H](C)N1CCN(S(=O)(=O)NCCO)CC1 [Compound 131]
> 7.30	Cc1c(CN2CCC(Nc3ncnc4sc(CC(F)(F)F)cc34)CC2)ccc2c1cc(C#N)n2C[C@H](C)N1C[C@@H](C)C(S(C)(=O)=O)[C@H](C)C1 [Compound 92]
> 7.30	Cc1c(CN2CCC(Nc3ncnc4sc(CC(F)(F)F)cc34)CC2)ccc2c1cc(C#N)n2C[C@H](C)N1CCN(S(=O)(=O)NCCF)CC1 [Compound 129]
> 7.30	Cc1c(CN2CCC(Nc3ncnc4sc(CC(F)(F)F)cc34)CC2)ccc2c1cc(C#N)n2C[C@H](C)N1CCN(S(=O)(=O)CCO)CC1 [Compound 85]
> 7.30	Cc1c(CN2CCC(Nc3ncnc4sc(CC(F)(F)F)cc34)CC2)ccc2c1cc(C#N)n2CC(C)N1CC2CCC(C1)N2S(C)(=O)=O (stereo not drawn) [Compound 28]
< 6.00	Cc1c(CN2CCC(Nc3ncnc4sc(CC(F)(F)F)cc34)CC2)ccc2c1cc(C#N)n2C[C@@H](C)N1CCN(S(=O)(=O)CF)CC1 [Compound 71]
> 7.30	Cc1c(CN2CCC(Nc3ncnc4sc(CC(F)(F)F)cc34)CC2)ccc2c1cc(C#N)n2CC(C)N1CCN(S(C)(=O)=O)[C@@H](C)C1 (stereo partly drawn) [Compound 13]
6.60 to 7.30	Cc1c(CN2CCC(Nc3ncnc4sc(CC(F)(F)F)cc34)CC2)ccc2c1cc(C#N)n2CC(C)N1C2CCC1CN(S(C)(=O)=O)C2 (stereo not drawn) [Compound 94]
6.60 to 7.30	Cc1c(CN2CCC(Nc3ncnc4sc(CC(F)(F)F)cc34)CC2)ccc2c1cc(C#N)n2C[C@H](C)N1CCN(S(=O)(=O)N2CC2)CC1 [Compound 140]
6.60 to 7.30	Cc1c(CN2CCC(Nc3ncnc4sc(CC(F)(F)F)cc34)CC2)ccc2c1cc(C#N)n2C[C@H](C)N1CCN(S(=O)(=O)C(F)F)CC1 [Compound 144]
6.60 to 7.30	[2H]C1([2H])N([C@@H](C)Cn2c(C#N)cc3c(C)c(CN4CCC(Nc5ncnc6sc(CC(F)(F)F)cc56)CC4)ccc32)C([2H])([2H])C([2H])([2H])N(S(C)(=O)=O)C1([2H])[2H] [Compound 153]
6.60 to 7.30	COCC(=O)N1CCN([C@@H](C)Cn2c(C#N)cc3c(C)c(CN4CCC(Nc5ncnc6sc(CC(F)(F)F)cc56)CC4)ccc32)CC1 [Compound 133]
> 7.30	Cc1c(CN2CCC(Nc3ncnc4sc(CC(F)(F)F)cc34)CC2)ccc2c1cc(C#N)n2CC(C)N1C[C@@H](C)N(S(C)(=O)=O)[C@@H](C)C1 (stereo partly drawn) [Compound 12]
6.60 to 7.30	Cc1c(CN2CCC(Nc3ncnc4sc(CC(F)(F)F)cc34)CC2)ccc2c1cc(C#N)n2CC(C)N1CCN(S(C)(=O)=O)CC1 (stereo not drawn) [Compound 2]
> 7.30	Cc1c(CN2CCC(Nc3ncnc4sc(CC(F)(F)F)cc34)CC2)ccc2c1cc(C#N)n2C[C@H](C)N1CCNCC1 [Compound 148]
6.60 to 7.30	[2H]C1([2H])N(C(C)Cn2c(C#N)cc3c(C)c(CN4CCC(Nc5ncnc6sc(CC(F)(F)F)cc56)CC4)ccc32)C([2H])([2H])C([2H])([2H])N(S(C)(=O)=O)C1([2H])[2H] (stereo not drawn) [Compound 161]
6.60 to 7.30	Cc1c(CN2CCC(Nc3ncnc4sc(CC(F)(F)F)cc34)CC2)ccc2c1cc(C#N)n2CC(C)N1CCN(S(C)(=O)=O)C(C)(C)C1 (stereo not drawn) [Compound 25]
